Where a name gives a salt, the structure may show the parent alone.
Tested on: MTT (mouse pheochromocytoma)
Assay: IC50 of cell viability (ATP content)
Conditions: (24 or 48 h)
In short: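 MTT mouse pheochromocytoma cells in white 1536-well plates were treated for 24 or 48 hrs with library compounds at 8 final concentrations from 0.5 nM to 46 µM. ATP content was measured with CellTiter-Glo luminescence, using positive-control wells as 100% and DMSO wells as 0%. IC50 came from a four-parameter logistic fit.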

SMILES	IC50 of cell viability [µM]
Cc1ccccc1N1C(=O)c2cc(N)ccc2N/C1=C\F [AFLOQUALONE]	> 46
O=[S+]([O-])(O)CCS [MESNA]	> 46
CCCCc1cc2ccccc2c(OCCN(C)C)n1 [Dimethisoquin hydrochloride]	> 46
CNC(=N)NCCC[C@H](N)C(=O)O [L-NMMA]	> 46
CC(C)(C)C(=O)OCOP(=O)(COCCn1cnc2c(N)ncnc21)OCOC(=O)C(C)(C)C [ADEFOVIR DIPIVOXIL]	> 46
C\C1=C(\OC2=C(C=CC=C2C(=O)OCCN3CCCCC3)C1=O)C4=CC=CC=C4 [Flavoxate hydrochloride]	> 46
O=C1C=C(CO)OCC1=O [Kojic acid]	> 46
CC(C)(Oc1ccc(C2CC2(Cl)Cl)cc1)C(=O)O (centres undefined) [Ciprofibrate]	> 46
O=C(CCCN1CCC(n2c(=O)[nH]c3ccccc32)CC1)c1ccc(F)cc1 [Benperidol]	> 46
C/C=C(\C(=C\C)c1ccc(O)cc1)c1ccc(O)cc1 [Dienestrol]	> 46
C=CCNC(N)=S [Allylthiourea]	> 46
COc1ccc2c3c1O[C@H]1C(=O)CC[C@H]4[C@@H](C2)N(C)CC[C@]314 [HYDROCODONE BITARTRATE]	> 46
CC(=O)Nc1ccc(CC(=O)O)cc1 [Actarit]	> 46
O=C(c1ccccc1)C(O)c1ccccc1 (centres undefined) [Benzoin]	> 46
CC(C)=CC1C(C(=O)OCc2cccc(Oc3ccccc3)c2)C1(C)C (centres undefined) [PHENOTHRIN]	> 46
Clc1cccc(SC2CCNCC2)n1 [ANPIRTOLINE]	> 46
Cc1cc(C)c(NC(=O)CN(CC(=O)O)CC(=O)O)c(C)c1Br [MEBROFENIN]	> 46
c1ccc2c(c1)Sc1ccccc1N2CC1CN2CCC1CC2 (centres undefined) [Mequitazine]	> 46

SMILES	IC50 of cell viability [µM]
CN1C[C@H](C(=O)N[C@]2(C)O[C@@]3(O)[C@@H]4CCCN4C(=O)[C@H](Cc4ccccc4)N3C2=O)C[C@@H]2c3cccc4[nH]cc(c34)C[C@H]21 [DIHYDROERGOTAMINE]	> 46
CCN(C)C(=O)Oc1cccc([C@H](C)N(C)C)c1 [RIVASTIGMINE TARTRATE]	> 46
O=C(O)CNC(=O)CNC(=O)CNC(=O)CSC(=O)c1ccccc1 [BENZOYLMERCAPTOACETYLGLYCYLGLYCYLGLYCINE (Betiatide)]	> 46
O=C(O)[C@@H](O)[C@@H](O)[C@H](O)[C@H](O)CO [GLUCONIC ACID, BARIUM SALT]	> 46
C#CC(C)(O)CC (centres undefined) [Methylpentynolum]	> 46
CC(C)(C)c1ccc(O)cc1 [4-T-BUTYLPHENOL FORMALDEHYDE RESIN]	> 46
O=C(CCCN1CCC(O)(c2ccc(Br)cc2)CC1)c1ccc(F)cc1 [Bromperidol]	> 46
CCOC(=O)c1ncn2c1CN(C)C(=O)c1cc(F)ccc1-2 [FLUMAZENIL]	> 46
Cc1cc(C(=O)NNCc2ccccc2)no1 [Isocarboxazid]	> 46
CN(C)CCc1c[nH]c2cccc(OP(=O)(O)O)c12 [Psilocybin]	> 46
CCCc1cc(O)nc(S)n1 [6-Propyl-2-thiouracil]	> 46
O=C1c2ccccc2-c2n[nH]c3cccc1c23	> 46
NC(=O)C1CC2(NC(=O)NC2=O)c2cc(F)ccc2O1 (centres undefined) [FIDARESTAT]	> 46
Cc1cccc(C)c1NC(=O)c1ccccc1C(=O)O [Ftaxilida]	> 46
O=C(/C=C/c1ccccc1)NCCO [Idrocilamida]	> 46
OCC1OC(O)C(O)C(O)C1O (centres undefined) [Galactose]	> 46
CCNC(=O)NCc1cccc(Cl)c1 [Lozilurea]	> 46
CCC(CC)(CC(=O)Nc1cccc(/C=C/c2nc(C3CCC3)cs2)c1)C(=O)O [CINALUKASTUM]	> 46

Now from value to compound:

IC50 of cell viability [µM]	SMILES
> 46	C[S+](=O)([O-])Nc1cc2occ(NC=O)c(=O)c2cc1Oc1ccccc1 [T 614]
> 46	CCCn1cnc2c1c(=O)n(CCCCC(C)=O)c(=O)n2C [PROPENTOFYLLINE]
> 46	Clc1ccc(Nc2nnc(Cc3ccncc3)c3ccccc23)cc1 [Vatalanib Dihydrochloride]
> 46	O=C1OC2C(O)C(O)OC2C1O (centres undefined) [Mannuronic acid lactone]
> 46	CCOC(=O)\C1=C\[C@@]2(CC)CCCN3CCC4=C([C@@H]23)[N]1C5=C4C=CC=C5 [VINPOCETINE]
> 46	COc1ccc(-c2noc(CC(=O)O)c2-c2ccc(OC)cc2)cc1 [MOFEZOLAC]
> 46	CCN(CC)CCOC(=O)[C@@H](Cc1cccc2ccccc12)C[C@H]1CCCO1 [Nafronyl oxalate]
> 46	CNc1cc(OC)c(C(=O)NC2CCN(Cc3ccccc3)C2C)cc1Cl (centres undefined) [Nemonapride]
> 46	CN1\C(=C(\O)C2=C(C=CC=C2)[S+]1([O-])=O)C(=O)NC3=CC=CC=N3 [Piroxicam]
> 46	C\C1=C\N([C@H]2C[C@H](N=[N+]=[N-])[C@@H](CO)O2)C(=O)NC1=O [ZIDOVUDINE]
> 46	CCCCCOc1ccc(C2SC(=O)NC2=O)cc1OCC (centres undefined) [Risarestat]
> 46	CC1CN(CCN1)C2=CC3=C(C=C2F)C(=O)\C(=C/N3C4=CC=C(F)C=C4F)C(O)=O (centres undefined) [Temafloxacin]
> 46	CC(CNC(=O)c1cccnc1)NC(=O)c1cccnc1 (centres undefined) [Nicaraven]
> 46	CCC(=O)c1ccc(O)cc1 [P-HYDROXYPROPIOPHENONE]
> 46	CC(C)(C)NCC(O)COc1ccc(NC(=O)NC2CCCCC2)cc1 (centres undefined) [TALINOLOLUM]
> 46	O=C(O)c1cccc(-c2noc(-c3ccccc3F)n2)c1 [PTC 124]
> 46	CCOC(=O)OC(C)OC1=C(C(=O)Nc2ccccn2)N(C)S(=O)(=O)c2ccccc21 (centres undefined) [ampiroxicam]
> 46	COc1ccc(CCN(C)CCCC(C#N)(c2cc(OC)c(OC)c(OC)c2)C(C)C)cc1OC (centres undefined) [METHOXY VERAPAMIL]
> 46	Clc1ccc([C@H](Cn2ccnc2)OCc2csc3c(Cl)cccc23)c(Cl)c1 [Sertaconazole nitrate]
> 46	CC(C(=O)O)c1ccc2c(c1)Cc1cccnc1O2 (centres undefined) [PRANOPROFEN]
> 46	CCCN(CCc1cccs1)[C@H]1CCc2c(O)cccc2C1 [ROTIGOTINE]
> 46	CN(C)[C@H]\1[C@@H]2[C@@H](O)[C@@H]\3C(=C)C4=C(C(=CC=C4)O)C(=O)C3=C(\O)[C@@]2(O)C(=O)\C(=C1O)C(N)=O [Methacycline hydrochloride]
> 46	COc1ccc2[nH]c([S+]([O-])Cc3ncc(C)c(OC)c3C)nc2c1 (centres undefined) [Omeprazole]

Source: the supplement of paper PMC3974653
